Where two headings read alike, the source gives them in different places.

For 20 compounds, IC50 results are on record in patent US8883782B2, “Spiro-tetracyclic ring compounds as beta-secretase modulators and methods of use” (Amgen Inc., priority 2010, dated 2014).

The test system of assay [1] is Aβ40 in conditioned medium of cells stably expressing Amyloid Precursor Protein (APP). Description: In vitro BACE cell-based assay (Aβ40 in conditioned medium, sandwich ELISA). The following applies: read-out: HEK cell assay. The procedure, abridged:
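The sandwich ELISA pairs pAb40 capture (3 h, 4 °C) with 6E10 detection (2 h, 4 °C) and a streptavidin-europium TRF read-out. Supernatants come from APP-expressing cells grown in 10% FBS DMEM.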
Background: ELISA stands for enzyme-linked immunosorbent assay.

For assay [2], the target named is Beta Secretase enzyme (BACE) (Homo sapiens, UniProt P56817). Description: In vitro enzymatic BACE FRET (fluorescence resonance energy transfer) assay. Type of assay: biochemical. As to conditions: average IC50, enzyme assay; read-out: BACE 1 FRET assay. The procedure, abridged: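 Fluorescence read after Tris quench to neutral pH. Reaction: 50 nM fluorophore/quencher peptide substrate, 1 h, in 0.05 M acetate pH 4.2, 10% DMSO final, 100 uM genapol.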
Beta Secretase enzyme (BACE), sequence (P56817 46-501, species assumed): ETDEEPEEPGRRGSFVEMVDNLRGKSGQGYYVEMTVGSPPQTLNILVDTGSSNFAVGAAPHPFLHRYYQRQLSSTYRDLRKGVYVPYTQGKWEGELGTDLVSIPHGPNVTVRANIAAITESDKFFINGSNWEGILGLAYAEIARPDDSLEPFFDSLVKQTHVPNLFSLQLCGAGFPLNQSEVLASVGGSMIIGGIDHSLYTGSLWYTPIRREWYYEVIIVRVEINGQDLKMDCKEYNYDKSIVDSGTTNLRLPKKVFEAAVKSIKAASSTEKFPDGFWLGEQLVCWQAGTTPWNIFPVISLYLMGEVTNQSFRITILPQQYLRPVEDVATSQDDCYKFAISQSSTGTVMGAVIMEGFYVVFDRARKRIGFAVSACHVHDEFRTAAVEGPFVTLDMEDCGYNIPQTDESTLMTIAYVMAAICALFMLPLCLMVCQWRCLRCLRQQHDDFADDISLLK

[3] abbreviates: Homo sapiens, HEK293, average IC50, HEK cells.
The mark [4] stands for this setting: Homo sapiens, HEK293, average IC50.

Regarding `NC1=N[C@@]2(CO1)c1cc(-c3ccncc3F)ccc1Oc1cnc(-c3cccnc3F)cc12` [Example 574, (5S)-3-(2-fluoro-3-pyridinyl)-7-(3-fluoro-4-pyridinyl)spiro[chromeno[2,3-c]pyridine-5,4′-[1,3]oxazol]-2′-amine], the results for the IC50 in assay [1] (setting [3]) and in assay [2] were 2230 nM and 856 nM, respectively.
As for `CC1(C)CCCN(c2cnc3c(c2)[C@]2(COC(N)=N2)c2cc(-c4cccnc4F)ccc2O3)C1` [Example 483, (5S)-3-(3,3-dimethyl-1-piperidinyl)-7-(2-fluoro-3-pyridinyl)spiro[chromeno[2,3-b]pyridine-5,4′-[1,3]oxazol]-2′-amine], the IC50 in assay [1] (setting [3]) was determined as 22.3 nM; in assay [2] it was 3.4 nM.
In the same order, the values of `NC1=N[C@@]2(CO1)c1cc(-c3cccnc3)ccc1Oc1cnc(NCC(F)(F)F)cc12` [Example 404, (5S)-7-(3-pyridinyl)-N~3~-(2,2,2-trifluoroethyl)spiro[chromeno[2,3-c]pyridine-5,4′-[1,3]oxazole]-2′,3-diamine] are 163 nM and 31.3 nM.
In the case of `CC(C)(C)COc1cc2c(cn1)Oc1ccc(-c3cccnc3F)cc1[C@]21COC(N)=N1` [Example 610, (5R)-3-(2,2-dimethylpropoxy)-7-(2-fluoro-3-pyridinyl)spiro[chromeno[2,3-c]pyridine-5,4′-[1,3]oxazol]-2′-amine], the IC50 turned out to be 1130 nM in assay [1] (setting [3]) and 116 nM in assay [2].
As for `N#Cc1cc(-c2ccc3c(c2)[C@@]2(CSC(N)=N2)c2cc(C4=CCOCC4)cnc2O3)ccc1F` [Example 764, 5-((5S)-2′-amino-3-(3,6-dihydro-2H-pyran-4-yl)spiro[chromeno[2,3-b]pyridine-5,4′-[1,3]thiazol]-7-yl)-2-fluorobenzonitrile], the IC50 in assay [1] (setting [4]) is 6 nM; in assay [2], 0.6 nM.
In the same order, the values of `C=Cc1cc2c(c(F)n1)Oc1ccc(-c3cncc(F)c3)cc1C21COC(N)=N1` (stereo not shown) [Example 848, 3-ethenyl-1-fluoro-7-(5-fluoro-3-pyridinyl)spiro[chromeno[2,3-c]pyridine-5,4′-[1,3]oxazol]-2′-amine] are 2 nM and 0.4 nM.
For `CC1(C#Cc2cnc3c(c2)[C@]2(COC(N)=N2)c2cc(-c4ccc(F)c(F)c4)ccc2O3)COC1` [Example 188, (5S)-7-(3,4-difluorophenyl)-3-((3-methyl-3-oxetanyl)ethynyl)spiro[chromeno[2,3-b]pyridine-5,4′-[1,3]oxazol]-2′-amine], the IC50 in assay [1] (setting [4]) was 86.6 nM; in assay [2] it was 4.5 nM.
Consider “(5R)-7-(2,4-difluoro-3-pyridinyl)-3-(2-fluoro-4-pyridinyl)spiro[chromeno[2,3-c]pyridine-5,4′-[1,3]thiazol]-2′-amine, (5S)-7-(2,4-difluoro-3-pyridinyl)-3-(2-fluoro-4-pyridinyl)spiro[chromeno[2,3-c]pyridine-5,4′-[1,3]thiazol]-2′-amine [Example 1019]”, for which the IC50 amounted to 33 nM in assay [1] (average IC50) and 0.7 nM in assay [2].
For the compound `NC1=N[C@@]2(CO1)c1cc(Oc3cccc(Cl)n3)ccc1Oc1c(F)cc(C3=CCOCC3)cc12` [Example 725, (4S)-7′-((6-chloro-2-pyridinyl)oxy)-2′-(3,6-dihydro-2H-pyran-4-yl)-4′-fluorospiro[1,3-oxazole-4,9′-xanthen]-2-amine], the IC50 was 1920 nM in assay [1] (setting [4]) and 22.7 nM in assay [2].
`NC1=N[C@@]2(CO1)c1cc(-c3cc(F)cnc3F)ccc1Oc1cnc(C3=CCOCC3)cc12` [Example 600, (5S)-7-(2,5-difluoro-3-pyridinyl)-3-(3,6-dihydro-2H-pyran-4-yl)spiro[chromeno[2,3-c]pyridine-5,4′-[1,3]oxazol]-2′-amine]: the IC50 in assay [1] (setting [3]) was 165 nM; in assay [2] it was 17.7 nM.
In the same order, the values of `NC1=N[C@@]2(CO1)c1cc(-c3cccnc3)ccc1Oc1cnc(N3CC[C@@H](F)C3)cc12` [Example 411, (5S)-3-((3R)-3-fluoro-1-pyrrolidinyl)-7-(3-pyridinyl)spiro[chromeno[2,3-c]pyridine-5,4′-[1,3]oxazol]-2′-amine] are 4.5 nM and 2.3 nM.
With `NC1=N[C@]2(CS1)c1cc(-c3cccnc3F)ccc1Oc1ncc(C3=CCOCC3)cc12` [Example 577, (5R)-3-(3,6-dihydro-2H-pyran-4-yl)-7-(2-fluoro-3-pyridinyl)spiro[chromeno[2,3-b]pyridine-5,4′-[1,3]thiazol]-2′-amine], the IC50 in assay [1] (setting [3]) worked out at 16.4 nM; in assay [2] it was 1.7 nM.
Turning to `CC1(COc2ccc3c(c2)[C@@]2(COC(N)=N2)c2cc(C4=CCOCC4)cc(F)c2O3)COC1` [Example 438, (4S)-2′-(3,6-dihydro-2H-pyran-4-yl)-4′-fluoro-7′-((3-methyl-3-oxetanyl)methoxy)spiro[1,3-oxazole-4,9′-xanthen]-2-amine], the IC50 in assay [1] (setting [3]) is 34.6 nM; in assay [2], 9 nM.
As to `NC1=N[C@@]2(CO1)c1cc(-c3c(F)ccnc3F)ccc1Oc1c(F)cc(-c3ncccn3)cc12` [Example 858, (4S)-7′-(2,4-difluoro-3-pyridinyl)-4′-fluoro-2′-(2-pyrimidinyl)spiro[1,3-oxazole-4,9′-xanthen]-2-amine], the figures for the IC50 in assay [1] (setting [3]) and in assay [2] were 18 nM and 0.5 nM, respectively.
As to `CC1(C)CC(c2cc3c(c(F)n2)Oc2ccc(-c4cccnc4F)cc2[C@]32CSC(N)=N2)=CCO1` [Example 1036, (5R)-3-(2,2-dimethyl-3,6-dihydro-2H-pyran-4-yl)-1-fluoro-7-(2-fluoro-3-pyridinyl)spiro[chromeno[2,3-c]pyridine-5,4′-[1,3]thiazol]-2′-amine], the IC50 is 120 nM in assay [1] (setting [4]) and 2 nM in assay [2].
In the same order, the values of `CC1(C#Cc2cnc3c(c2)[C@@]2(COC(N)=N2)c2c(ccc(-c4cncnc4)c2F)O3)COC1` [Example 345, (5S)-6-fluoro-3-((3-methyl-3-oxetanyl)ethynyl)-7-(5-pyrimidinyl)spiro[chromeno[2,3-b]pyridine-5,4′-[1,3]oxazol]-2′-amine] are 650 nM and 94 nM.
`CC1(C)CC(c2cnc3c(c2)[C@]2(COC(N)=N2)c2c(ccc(-c4cccnc4F)c2F)O3)=CCO1` [Example 349, (5R)-3-(2,2-dimethyl-3,6-dihydro-2H-pyran-4-yl)-6-fluoro-7-(2-fluoro-3-pyridinyl)spiro[chromeno[2,3-b]pyridine-5,4′-[1,3]oxazol]-2′-amine]: the IC50 in assay [1] (setting [4]) was 8 nM; in assay [2], 0.7 nM.
In the case of `CC1(COc2ccc3c(c2Br)[C@]2(COC(N)=N2)c2cc(-c4cccnc4)ccc2O3)COC1` [Example 517, (4S)-1′-bromo-2′-((3-methyl-3-oxetanyl)methoxy)-7′-(3-pyridinyl)spiro[1,3-oxazole-4,9′-xanthen]-2-amine], the IC50 in assay [1] (setting [3]) was determined as 20.5 nM; in assay [2], 8.4 nM.
Turning to `NC1=N[C@@]2(CO1)c1cc(-c3cccnc3F)ccc1Oc1c(F)cc(N3CC4CC4C3)cc12` (stereo partly drawn) [Example 1054, (4S)-2′-(3-azabicyclo[3.1.0]hex-3-yl)-4′-fluoro-7′-(2-fluoro-3-pyridinyl)spiro[1,3-oxazole-4,9′-xanthen]-2-amine], the IC50 in assay [1] (setting [4]) was 62 nM; in assay [2], 0.6 nM.
Regarding `COc1nc(-c2cccnc2)cc2c1Oc1ccc(-c3cccnc3)cc1[C@@]21COC(N)=N1` [Example 490, (5S)-1-methoxy-3,7-di-3-pyridinylspiro[chromeno[2,3-c]pyridine-5,4′-[1,3]oxazol]-2′-amine], the IC50 was 22.6 nM in assay [1] (setting [3]) and 7 nM in assay [2].
